Measured values from patent US20120065152A1 (SHIRE LLC, priority 2010, published 2012).
Where “and” joins values, the source holds several entries; their conditions need not be identical. Equal values may be shown once. Where a name gives a salt, the structure may show the parent alone.

What was measured:
[1] = Stability studies on guanfacine prodrugs in buffers; type: physicochemical
[2] = Solubility
[3] = Comparative bioavailability study of guanfacine in monkeys given guanfacine or guanfacine prodrug; type: in vivo, monkey; details: for Prodrug Cmax: monkeys, 0.5 mg/kg guanfacine free base equivalents; for Cmax: monkey, plasma, po, 0.5 mg/kg
Experimental: Blood samples were taken at various times after administration and submitted to analysis for the parent drug and prodrug using a qualified LC-MS-MS assay. The following pharmacokinetic parameters derived from the plasma analytical data were determined using Win Nonlin;

[4] = physchem
[5] = tested on: rat; test: Elevated Plus-Maze Test in the rat; type: in vivo
Description: The method, which detects anxiolytic activity, follows that described by Handley and Mithani (Naunyn. Schmied. Arch. Pharmacol., 327, 1-5, 1984). Rodents avoid open spaces (the open arms of an elevated plus-maze). The percentage of time spent on the open arms and the number of entries in the open arms are considered to be the best measures of anxiety (File, S. E. 1991. Animal models of anxiety. In Biological Psychiatry (G. Racagni, N. Brunello, and T. Fukuda, eds.) pp. 596-599. Elsevier, New York.).
Anxiolytics increase exploratory activity in the open arms, as indicated by increased time spent on the open arms and/or by increased % open-arm entries.

[6] = tested on: rat GIT transit; test: Charcoal propulsion test (gut motility) in rat; type: in vivo; details: oral; for % inhibition of rat GIT transit: 60 min before charcoal
Experimental: The effect of a drug on gut motility can be studied by means of the charcoal propulsion test.
The method used was based on that described by Takemori et al. (J. Pharmacol. Exp. Ther. 169:39, 1969). Test treatments were administered orally 60 minutes prior to an oral dose of a 10% suspension of charcoal in 2.5% gum Arabic (2 ml/kg). Twenty minutes after dosing with charcoal, the rats were sacrificed and the entire gastrointestinal tract was removed quickly and carefully. The distance that the charcoal meal had traveled toward the caecum was measured and expressed as a percentage of the total gut length.

[7] = as early as; cited from earlier work
[8] = pH 1.2, 37° C., 0.1M HCl/NaCl buffer, 1 h
[9] = pH 1.2, 37° C., 0.1M HCl/NaCl buffer, time 0
[10] = pH 3.0, 20° C., 0.1M citrate buffer, 2 h
[11] = pH 3.0, 20° C., 0.1M citrate buffer, time 0
[12] = pH 6.8, 37° C., 0.1M phosphate buffer, 2 h
[13] = pH 6.8, 37° C., 0.1M phosphate buffer, time 0
[14] = pH 7.4, 37° C., 0.1M phosphate buffer, 2 h
[15] = pH 7.4, 37° C., 0.1M phosphate buffer, time 0
[16] = DMSO, organic solvent or mixture, Solubility, in DMSO
[17] = water/CH3CN (1:1), aqueous with cosolvent or surfactant or cyclodextrin, Solubility, in water/CH3CN (1:1)
[18] = pH 7.4, 37° C., 0.1M phosphate buffer, 2 h, listed as Guanfacine (2-Hydroxyethyl) Carbamate
[19] = pH 1.2, 37° C., 0.1M HCl/NaCl buffer, 1 h, Hydrochloride

| SMILES | Active drug [1, 8] | Active drug [1, 9] | Pro-drug [1, 9] | Active drug [1, 10] | Active drug [1, 11] | Pro-drug [1, 11] | Active drug [1, 12] | Active drug [1, 13] | Pro-drug [1, 13] | Active drug [1, 14] | Active drug [1, 15] | Pro-drug [1, 15] | solubility [2, 16] | solubility ([2]; water, Solubility, in water) | solubility [2, 17] | Prodrug Cmax [3] | further results |
| --- | --- | --- | --- | --- | --- | --- | --- | --- | --- | --- | --- | --- | --- | --- | --- | --- | --- |
| CCCOC(=O)NC(N)=NC(=O)Cc1c(Cl)cccc1Cl.Cl [Compound 4, 1-{N′-[2-(2,6-Dichloro-phenyl)acetyl]-guanidinocarbonyloxy}propane Hydrochloride] | 0.0 | 0.0 | 100 | 0.0 | 0.0 | 100 | 0.0 | 0.0 | 100 | 0.0 | 0.0 | 100 | > 10000 µg/mL | < 1000 µg/mL | > 1000 µg/mL | BLQ | Pro-drug ([1]; pH 1.2, 37° C., 0.1M HCl/NaCl buffer, 1 h, listed as Guanfacine N-Propyl Carbamate Hydrochloride, Hydrochloride): 94.4 and 94.6; Pro-drug ([1]; pH 3.0, 20° C., 0.1M citrate buffer, 2 h, listed as Guanfacine N-Propyl Carbamate Hydrochloride, Hydrochloride): 94.0 and 94.4; Pro-drug ([1]; pH 6.8, 37° C., 0.1M phosphate buffer, 2 h, listed as Guanfacine N-Propyl Carbamate Hydrochloride, Hydrochloride): 95.8 and 96.4; Pro-drug ([1]; pH 7.4, 37° C., 0.1M phosphate buffer, 2 h, listed as Guanfacine N-Propyl Carbamate Hydrochloride, Hydrochloride): 96.3 and 96.0 |
| CC(C)OC(=O)NC(N)=NC(=O)Cc1c(Cl)cccc1Cl.Cl [Compound 5, 2-{N′-[2-(2,6-Dichloro-phenyl)acetyl]-guanidinocarbonyloxy}propane Hydrochloride] |  |  |  |  |  |  |  |  |  |  |  |  | > 10000 µg/mL | < 1000 µg/mL |  | BLQ | solubility ([2]; 3.0 mL CH3CN/3.0 mL H2O, aqueous with cosolvent or surfactant or cyclodextrin, Solubility, in 3.0 mL CH3CN/3.0 mL H2O): > 833 µg/mL |
| CCCCOC(=O)NC(N)=NC(=O)Cc1c(Cl)cccc1Cl.Cl [Compound 6, 1-{N′-[2-(2,6-Dichloro-phenyl)-acetyl]-guanidinocarbonyloxy}butane Hydrochloride] | 0.0 | 0.0 | 100 | 0.0 | 0.0 | 100 | 0.0 | 0.0 | 100 | 0.0 | 0.0 | 100 | > 10000 µg/mL | < 1000 µg/mL | > 1000 µg/mL | BLQ | Pro-drug [1, 8]: 94.0; Pro-drug ([1]; pH 3.0, 20° C., 0.1M citrate buffer, 2 h, listed as Guanfacine N-Butyl Carbamate Hydrochloride, Hydrochloride): 94.6 and 94.9; Pro-drug ([1]; pH 6.8, 37° C., 0.1M phosphate buffer, 2 h, listed as Guanfacine N-Butyl Carbamate Hydrochloride, Hydrochloride): 90.9 and 90.7; Pro-drug ([1]; pH 7.4, 37° C., 0.1M phosphate buffer, 2 h, listed as Guanfacine N-Butyl Carbamate Hydrochloride, Hydrochloride): 90.7 and 91.0 |
| CCC(C)OC(=O)NC(N)=NC(=O)Cc1c(Cl)cccc1Cl.Cl (stereo not drawn) [Compound 7, 2-{N′-[2-(2,6-Dichloro-phenyl)-acetyl]-guanidinocarbonyloxy}-butane Hydrochloride] | 0.0 | 0.0 | 100 | 0.0 | 0.0 | 100 | 0.0 | 0.0 | 100 | 0.0 | 0.0 | 100 |  |  |  |  | solubility ([4]; organic solvent or mixture): > 10000 µg/mL; solubility ([4]; water): < 1000 µg/mL; Pro-drug [1, 8]: 95.9; Pro-drug ([1]; pH 3.0, 20° C., 0.1M citrate buffer, 2 h, listed as Guanfacine 2-Butanol Carbamate Hydrochloride, Hydrochloride): 98.7 and 98.9; Pro-drug [1, 12]: 93.4; Pro-drug ([1]; pH 7.4, 37° C., 0.1M phosphate buffer, 2 h, listed as Guanfacine 2-Butanol Carbamate Hydrochloride, Hydrochloride): 93.4 and 93.6 |
| NC(=NC(=O)Cc1c(Cl)cccc1Cl)NC(=O)OCCO [Compound 19, 2-{N′-[2-(2,6-Dichloro-phenyl)-acetyl]-guanidinocarbonyloxy}ethanol] | 0.5 | 0.0 | 100 | 0.4 | 0.0 | 100 | 9.8 | 0.0 | 100 |  | 0.0 | 100 | > 10000 µg/mL | < 1000 µg/mL | > 10000 µg/mL |  | Pro-drug ([1]; pH 1.2, 37° C., 0.1M HCl/NaCl buffer, 1 h, listed as Guanfacine (2-Hydroxyethyl) Carbamate): 91.4 and 91.5; Pro-drug [1, 10]: 98.0; Pro-drug ([1]; pH 6.8, 37° C., 0.1M phosphate buffer, 2 h, listed as Guanfacine (2-Hydroxyethyl) Carbamate): 87.4 and 87.5; Active drug [1, 18]: 22.6 and 22.3; Pro-drug [1, 18]: 72.5 and 73.0; Cmax [3]: 60.8 ng/mL; Change in time spent in the open arms ([5]; 10 mg/kg, NS): +69%; Change in percent of entries in open arms ([5]; 10 mg/kg, p<0.05): +87%; Efficacy in the Elevated Plus-Maze Test ([5]; rat): efficacious |
| NC(=NC(=O)Cc1c(Cl)cccc1Cl)NC(=O)OCCCO [Compound 22, 3-{N′-[2-(2,6-Dichloro-phenyl)-acetyl]-guanidinocarbonyloxy}propan-1-ol] | 0.0 | 0.0 | 100 | 0.0 | 0.0 | 100 | 0.0 | 0.0 | 100 | 0.0 | 0.0 | 100 | > 10000 µg/mL | < 1000 µg/mL | > 10000 µg/mL |  | Pro-drug ([1]; pH 1.2, 37° C., 0.1M HCl/NaCl buffer, 1 h, listed as Guanfacine (3-Hydroxypropyl) Carbamate): 94.8 and 94.9; Pro-drug ([1]; pH 3.0, 20° C., 0.1M citrate buffer, 2 h, listed as Guanfacine (3-Hydroxypropyl) Carbamate): 98.1 and 98.3; Pro-drug ([1]; pH 6.8, 37° C., 0.1M phosphate buffer, 2 h, listed as Guanfacine (3-Hydroxypropyl) Carbamate): 99.2 and 99.7; Pro-drug [1, 14]: 98.2; Cmax [3]: 3.49 ng/mL |
| CCSC(=O)NC(N)=NC(=O)Cc1c(Cl)cccc1Cl.Cl [Compound 30, Guanfacine Ethanethiol Carbamate Hydrochloride] |  | 0.0 | 100 | 0.0 | 0.0 | 100 | 0.0 | 0.0 | 100 | 0.0 | 0.0 | 100 |  |  |  | BLQ | Active drug [1, 19]: 10.1 and 11.0; Pro-drug [1, 19]: 81.0 and 80.4; Pro-drug ([1]; pH 3.0, 20° C., 0.1M citrate buffer, 2 h, Hydrochloride): 85.6 and 84.8; Pro-drug ([1]; pH 6.8, 37° C., 0.1M phosphate buffer, 2 h, Hydrochloride): 93.0 and 92.5; Pro-drug ([1]; pH 7.4, 37° C., 0.1M phosphate buffer, 2 h, Hydrochloride): 94.5 and 95.2; solubility ([2]; in DMSO): > 10000 µg/mL; solubility ([2]; in water): < 1000 µg/mL; solubility ([2]; in water/CH3CN (1:2)): > 5000 µg/mL |
| N=C(N)NC(=O)Cc1c(Cl)cccc1Cl [Guanfacine, N-Amidino-2-(2,6-dichlorophenyl)acetamide monohydrochloride, reference compound] |  |  |  |  |  |  |  |  |  |  |  |  |  |  |  |  | % inhibition of rat GIT transit ([6]; dose 00.1 mg/kg (guanfacine free base equivalents)): 41%; % inhibition of rat GIT transit ([6]; dose 00.3 mg/kg (guanfacine free base equivalents)): 56%; Reduction in the distance traveled by the charcoal plug within 20 minutes, compared to control group ([6]; 0.1 mg base/kg): about 41%; Time after dosing at which peak plasma drug levels are reached [7]: ≥ 1 h |
